According to patent US20140079836A1, “METHODS AND COMPOSITIONS FOR ALTERING HEALTH, WELLBEING, AND LIFESPAN” (LifeSpan Extension, LLC, priority 2008, published 2014):

Tests used:
[1] = tested on: TERT, TPP1, TERF1, TERF2, TINF2, POT1; experiment: qPCR primer assays of telomere complex genes in skin fibroblasts AG07999; assay type: cell-based, human; settings: 24 hours; 1 uM idebenone, 0.001% coffee cherry; FIG. 7
Method: Cell cultures: A human skin fibroblast cell culture was obtained through the Coriell Cell Repository from the National Institute on Aging Cell Repository. The culture, AG07999, was established from a biopsy of a person. Culture media: Cells were grown in Minimal Essential Medium supplemented with 10% fetal bovine serum, 2 mM L-glutamine, 2 mM Glutamax I. […] All cultures were incubated at 37° C. with 5% CO2 in a humidified chamber. Seeding of cells: […] Experimental phase: […] On Day 5 after 24 hours of exposure to test conditions, the cells were isolated and the RNA isolated using the RT^2q PCR-grade RNA isolation kit (Superarray Bioscience Corporation). […] The RNA was quantified and examined for purity using the 260/280 nm read method in a μQuant spectrophotometer before use in the array. Performance of the qPCR Primer Assays: […] The assay was performed in compliance with manufacturer's guidelines and by recommended manufacturer's protocol as can be found on the World Wide Web at superarray.com/Manual/realtimePCR.pdf. […] Any values out of range of the threshold cycles or inconsistent within the assay were discarded from analysis. qPCR Primer Assay results: The results from assays were determined using the delta CT method, which uses comparisons of control genes and threshold cycles of genes of interest to generate relative expression values (this process is handled by the GeneX package).

Drosophila Melanogaster = experiment: Drosophila survival/longevity after antioxidant media; assay type: in vivo
Method: Drosophila cultures: A wingless variant of Drosophila Melanogaster was purchased from Carolina Biological Supply. These flies were fed nutrient media (Formula 4-24) and experimental flies were collected within 18 hours after hatching to ensure the females were virgin. Culture media: Flies were given a combination of the following: 1) Formula 4-24 without blue coloring for breeding and post exposure to antioxidants. […] 4) 20% sucrose solution on filter paper following AOX incubation to serve as a low nutrient media and known lifespan shortening agent. […] The flies remain in the antioxidant media for 12 days. […] All the flies are examined daily and media changed as required until all the flies have died. The date (post 12 day antioxidant incubation) is recorded. Lifespan results: The cumulative average lifespan of all flies for each group are then computed and compared against the cumulative average of the control (untreated) flies to determine if the Antioxidants increase lifespan. The average lifespan increase is separated by sex as well as combined for both sexes. This lifespan extension is expressed as a percent increase or decrease over control values. Culture media: […] Experimental phase: […] Lifespan results: The cumulative average lifespan of all flies for each group are then computed and compared against the cumulative average of the control (untreated) flies to determine if the antioxidants increase lifespan. The average lifespan increase is separated by sex as well as combined for both sexes.

[2] = 0.01% antioxidant in media from hatching, antioxidant alone
[3] = 0.1% antioxidant in media from hatching, antioxidant alone
[4] = 1% antioxidant in media from hatching, antioxidant alone
[5] = 1% antioxidant media 12 days, then 20% Sucrose
[6] = 1% antioxidant media 12 days, then 20% Sucrose, vs 20% Sucrose
[7] = 1% antioxidant media 12 days, then H2O2 media
[8] = 1% antioxidant media 12 days, then H2O2 media, vs H2O2

COC1=C(OC)C(=O)C(CCCCCCCCCCO)=C(C)C1=O [Idebenone, 6-(10-hydroxydecyl)-2,3-dimethoxy-5-methyl-1,4-benzoquin-one]
TERF1 expression level [1]: effected
TERF2 expression level [1]: effected
average lifespan, Average of Both (Drosophila Melanogaster; [2]): 23.4 days
average lifespan, FEMALE (Drosophila Melanogaster; [2]): 23.4 days
average lifespan, Average of Both (Drosophila Melanogaster; [3]): 10.2 days
average lifespan, FEMALE (Drosophila Melanogaster; [3]): 10.2 days
average lifespan, Average of Both (Drosophila Melanogaster; [4]): 10 days
average lifespan, FEMALE (Drosophila Melanogaster; [4]): 12.4 days
average lifespan, MALE (Drosophila Melanogaster; [4]): 8.1 days
average lifespan, Average of Both (Drosophila Melanogaster; [5]): 11.89 days
average lifespan, FEMALE (Drosophila Melanogaster; [5]): 11.7 days
average lifespan, MALE (Drosophila Melanogaster; [5]): 12.11 days
% Change of lifespan over control, Average of Both (Drosophila Melanogaster; [6]): +5%
% Change of lifespan over control, FEMALE (Drosophila Melanogaster; [6]): −4%
% Change of lifespan over control, MALE (Drosophila Melanogaster; [6]): +24%
average lifespan, Average of Both (Drosophila Melanogaster; [7]): 5.75 days
average lifespan, FEMALE (Drosophila Melanogaster; [7]): 5.50 days
average lifespan, MALE (Drosophila Melanogaster; [7]): 5.32 days
% Change of lifespan over control, Average of Both (Drosophila Melanogaster; [8]): +8%
% Change of lifespan over control, FEMALE (Drosophila Melanogaster; [8]): −7%
% Change of lifespan over control, MALE (Drosophila Melanogaster; [8]): +8%
